Experimental data published in article PMC3968014, “Design and Synthesis of a Library of Lead-Like 2,4-Bisheterocyclic Substituted Thiophenes as Selective Dyrk/Clk Inhibitors” (PLoS ONE, 2014).

Assays:
U2OS osteosarcoma cells = assay: Caspase-3 Assay (Caspase-Glo 3/7); assay type: cell-based
Description: U2OS osteosarcoma cells were seeded in a 96 well flat bottom plate (15*10^3 cells/well). […] The induction of caspase-3/7 activity was measured using the Promega Caspase-Glo 3/7 assay system (Promega, LOT 0000054568). The resulting luciferase reaction signals that are proportional to the caspase induction were measured in a POLARstar plate reader (BMG Labtech, Offenburg, Germany). […] Values obtained for different compound concentrations were compared using the two-sided Student's t test; levels of significance thus obtained are indicated by asterisks.

DYRK3 = target: T1, DYRK3 (Homo sapiens, UniProt O43781); assay: Selectivity panel DYRK3; assay type: biochemical; conditions: 5 µM inhibitor
T1 construct: purchased Life Technologies (Invitrogen SelectScreen); Dyrk1A, Dyrk2 and CK2α in-house or gifts

CLK2 = target: T2, CLK2 (Homo sapiens, UniProt P49760); assay: Selectivity panel CLK2; assay type: biochemical; conditions: 5 µM inhibitor
T2 construct: purchased Life Technologies (Invitrogen SelectScreen); Dyrk1A, Dyrk2 and CK2α in-house or gifts
T2 sequence (P49760 whole entry): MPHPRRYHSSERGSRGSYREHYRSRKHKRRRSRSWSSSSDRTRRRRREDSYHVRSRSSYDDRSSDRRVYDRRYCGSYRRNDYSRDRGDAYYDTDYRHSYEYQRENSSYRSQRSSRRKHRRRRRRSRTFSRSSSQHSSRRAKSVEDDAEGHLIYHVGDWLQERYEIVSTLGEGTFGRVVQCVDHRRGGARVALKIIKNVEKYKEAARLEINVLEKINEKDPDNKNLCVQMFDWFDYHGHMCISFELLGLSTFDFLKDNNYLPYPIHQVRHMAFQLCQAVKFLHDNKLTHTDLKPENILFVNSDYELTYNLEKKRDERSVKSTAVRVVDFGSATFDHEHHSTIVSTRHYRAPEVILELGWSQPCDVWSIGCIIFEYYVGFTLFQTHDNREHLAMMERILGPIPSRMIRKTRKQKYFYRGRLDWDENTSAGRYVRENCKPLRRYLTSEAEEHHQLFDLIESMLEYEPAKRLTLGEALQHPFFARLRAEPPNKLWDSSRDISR

MAPK12 (p38 gamma, ERK3) = target: T3, MAPK12 (p38 gamma, ERK3) (Homo sapiens, UniProt P53778); assay: Selectivity panel MAPK12; assay type: biochemical; conditions: 5 µM inhibitor
T3 construct: purchased Life Technologies (Invitrogen SelectScreen); Dyrk1A, Dyrk2 and CK2α in-house or gifts

MAPK8 (JNK1) = target: T4, MAPK8 (JNK1) (Homo sapiens, UniProt P45983); assay: Selectivity panel MAPK8; assay type: biochemical; conditions: 5 µM inhibitor
T4 construct: purchased Life Technologies (Invitrogen SelectScreen); Dyrk1A, Dyrk2 and CK2α in-house or gifts

MAPK9 (JNK2) = target: T5, MAPK9 (JNK2) (Homo sapiens, UniProt P45984); assay: Selectivity panel MAPK9; assay type: biochemical; conditions: 5 µM inhibitor
T5 construct: purchased Life Technologies (Invitrogen SelectScreen); Dyrk1A, Dyrk2 and CK2α in-house or gifts

SRPK1 = target: T6, SRPK1 (Homo sapiens, UniProt Q96SB4); assay: Selectivity panel SRPK1; assay type: biochemical; conditions: 5 µM inhibitor
T6 construct: purchased Life Technologies (Invitrogen SelectScreen); Dyrk1A, Dyrk2 and CK2α in-house or gifts

MAP2K1 (MEK1) = target: T7, MAP2K1 (MEK1) (Homo sapiens, UniProt Q02750); assay: Selectivity panel MAP2K1; assay type: biochemical; conditions: 5 µM inhibitor
T7 construct: purchased Life Technologies (Invitrogen SelectScreen); Dyrk1A, Dyrk2 and CK2α in-house or gifts
T7 sequence (Q02750 whole entry): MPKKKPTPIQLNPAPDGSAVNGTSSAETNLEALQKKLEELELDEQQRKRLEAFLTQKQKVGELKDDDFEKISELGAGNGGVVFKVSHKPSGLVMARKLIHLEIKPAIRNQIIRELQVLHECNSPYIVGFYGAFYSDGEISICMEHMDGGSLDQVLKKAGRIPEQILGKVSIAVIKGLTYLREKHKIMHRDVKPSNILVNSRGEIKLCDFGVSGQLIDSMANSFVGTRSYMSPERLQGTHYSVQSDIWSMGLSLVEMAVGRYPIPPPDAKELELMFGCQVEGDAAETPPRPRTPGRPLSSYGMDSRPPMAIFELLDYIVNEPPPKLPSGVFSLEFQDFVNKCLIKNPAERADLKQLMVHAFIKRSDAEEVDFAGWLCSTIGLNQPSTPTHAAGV

MAP2K6 (MKK6) = target: T8, MAP2K6 (MKK6) (Homo sapiens, UniProt P52564); assay: Selectivity panel MAP2K6; assay type: biochemical; conditions: 5 µM inhibitor
T8 construct: purchased Life Technologies (Invitrogen SelectScreen); Dyrk1A, Dyrk2 and CK2α in-house or gifts

TAOK2 (TAO1) = target: T9, TAOK2 (TAO1) (Homo sapiens, UniProt Q9UL54); assay: Selectivity panel TAOK2; assay type: biochemical; conditions: 5 µM inhibitor
T9 construct: purchased Life Technologies (Invitrogen SelectScreen); Dyrk1A, Dyrk2 and CK2α in-house or gifts

[1] = target: T10, (Homo sapiens, UniProt Q9UEW8); assay: Selectivity panel PASK (STLK3); assay type: biochemical; conditions: 5 µM inhibitor; listed under STE
T10 construct: purchased Life Technologies (Invitrogen SelectScreen); Dyrk1A, Dyrk2 and CK2α in-house or gifts

ROCK2 = target: T11, ROCK2 (Homo sapiens, UniProt O75116); assay: Selectivity panel ROCK2; assay type: biochemical; conditions: 5 µM inhibitor
T11 construct: purchased Life Technologies (Invitrogen SelectScreen); Dyrk1A, Dyrk2 and CK2α in-house or gifts

RPS6KB1 (p70S6K) = target: T12, RPS6KB1 (p70S6K) (Homo sapiens, UniProt P23443); assay: Selectivity panel RPS6KB1; assay type: biochemical; conditions: 5 µM inhibitor
T12 construct: purchased Life Technologies (Invitrogen SelectScreen); Dyrk1A, Dyrk2 and CK2α in-house or gifts

SGK (SGK1) = target: T13, SGK (SGK1) (Homo sapiens, UniProt O00141); assay: Selectivity panel SGK; assay type: biochemical; conditions: 5 µM inhibitor
T13 construct: purchased Life Technologies (Invitrogen SelectScreen); Dyrk1A, Dyrk2 and CK2α in-house or gifts
T13 sequence (O00141 whole entry): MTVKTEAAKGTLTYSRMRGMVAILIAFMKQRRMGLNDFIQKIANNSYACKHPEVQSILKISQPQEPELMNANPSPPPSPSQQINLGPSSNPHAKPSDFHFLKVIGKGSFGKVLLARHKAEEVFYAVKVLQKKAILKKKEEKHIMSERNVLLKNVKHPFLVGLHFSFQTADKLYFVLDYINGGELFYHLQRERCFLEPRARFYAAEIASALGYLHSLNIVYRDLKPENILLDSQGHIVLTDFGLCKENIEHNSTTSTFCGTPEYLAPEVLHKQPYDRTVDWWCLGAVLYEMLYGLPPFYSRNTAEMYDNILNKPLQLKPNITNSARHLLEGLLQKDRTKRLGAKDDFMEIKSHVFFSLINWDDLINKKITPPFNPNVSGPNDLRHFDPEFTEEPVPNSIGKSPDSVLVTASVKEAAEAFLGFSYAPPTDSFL

PRKCE (PKC epsilon) = target: T14, PRKCE (PKC epsilon) (Homo sapiens, UniProt Q02156); assay: Selectivity panel PRKCE; assay type: biochemical; conditions: 5 µM inhibitor
T14 construct: purchased Life Technologies (Invitrogen SelectScreen); Dyrk1A, Dyrk2 and CK2α in-house or gifts

PRKCZ (PKC zeta) = target: T15, PRKCZ (PKC zeta) (Homo sapiens, UniProt Q05513); assay: Selectivity panel PRKCZ; assay type: biochemical; conditions: 5 µM inhibitor
T15 construct: purchased Life Technologies (Invitrogen SelectScreen); Dyrk1A, Dyrk2 and CK2α in-house or gifts

PDK1 = target: T16, PDK1 (Homo sapiens, UniProt O15530); assay: Selectivity panel PDK1; assay type: biochemical; conditions: 5 µM inhibitor
T16 construct: purchased Life Technologies (Invitrogen SelectScreen); Dyrk1A, Dyrk2 and CK2α in-house or gifts

MAPKAPK2 = target: T17, MAPKAPK2 (Homo sapiens, UniProt P49137); assay: Selectivity panel MAPKAPK2; assay type: biochemical; conditions: 5 µM inhibitor
T17 construct: purchased Life Technologies (Invitrogen SelectScreen); Dyrk1A, Dyrk2 and CK2α in-house or gifts

MARK1 (MARK) = target: T18, MARK1 (MARK) (Homo sapiens, UniProt Q9P0L2); assay: Selectivity panel MARK1; assay type: biochemical; conditions: 5 µM inhibitor
T18 construct: purchased Life Technologies (Invitrogen SelectScreen); Dyrk1A, Dyrk2 and CK2α in-house or gifts

CHEK1 (CHK1) = target: T19, CHEK1 (CHK1) (Homo sapiens, UniProt O14757); assay: Selectivity panel CHEK1; assay type: biochemical; conditions: 5 µM inhibitor
T19 construct: purchased Life Technologies (Invitrogen SelectScreen); Dyrk1A, Dyrk2 and CK2α in-house or gifts

CHEK2 (CHK2) = target: T20, CHEK2 (CHK2) (Homo sapiens, UniProt O96017); assay: Selectivity panel CHEK2; assay type: biochemical; conditions: 5 µM inhibitor
T20 construct: purchased Life Technologies (Invitrogen SelectScreen); Dyrk1A, Dyrk2 and CK2α in-house or gifts
T20 sequence (O96017 whole entry): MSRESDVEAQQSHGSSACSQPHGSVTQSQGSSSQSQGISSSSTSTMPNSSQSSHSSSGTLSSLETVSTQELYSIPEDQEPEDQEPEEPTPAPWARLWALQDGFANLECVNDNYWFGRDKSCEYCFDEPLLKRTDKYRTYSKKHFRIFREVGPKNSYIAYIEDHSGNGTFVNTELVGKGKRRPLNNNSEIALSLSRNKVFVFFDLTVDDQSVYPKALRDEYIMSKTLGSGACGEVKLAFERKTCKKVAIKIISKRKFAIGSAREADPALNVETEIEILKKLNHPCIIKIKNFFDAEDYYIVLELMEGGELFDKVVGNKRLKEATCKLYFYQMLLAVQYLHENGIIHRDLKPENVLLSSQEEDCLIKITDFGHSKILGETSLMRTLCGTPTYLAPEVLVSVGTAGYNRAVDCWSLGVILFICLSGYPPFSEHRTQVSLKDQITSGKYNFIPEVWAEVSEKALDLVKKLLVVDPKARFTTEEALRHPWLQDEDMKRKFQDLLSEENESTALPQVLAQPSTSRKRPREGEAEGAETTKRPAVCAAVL

MYLK2 (skMLCK) = target: T21, MYLK2 (skMLCK) (Homo sapiens, UniProt Q9H1R3); assay: Selectivity panel MYLK2; assay type: biochemical; conditions: 5 µM inhibitor
T21 construct: purchased Life Technologies (Invitrogen SelectScreen); Dyrk1A, Dyrk2 and CK2α in-house or gifts

PASK = target: T22, PASK (Homo sapiens, UniProt Q96RG2); assay: Selectivity panel PASK (CAMK); assay type: biochemical; conditions: 5 µM inhibitor; listed under CAMK
T22 construct: purchased Life Technologies (Invitrogen SelectScreen); Dyrk1A, Dyrk2 and CK2α in-house or gifts

IKBKB (IKK beta) = target: T23, IKBKB (IKK beta) (Homo sapiens, UniProt O14920); assay: Selectivity panel IKBKB; assay type: biochemical; conditions: 5 µM inhibitor
T23 construct: purchased Life Technologies (Invitrogen SelectScreen); Dyrk1A, Dyrk2 and CK2α in-house or gifts

CSNK1G1 (CK1 gamma 1) = target: T24, CSNK1G1 (CK1 gamma 1) (Homo sapiens, UniProt Q9HCP0); assay: Selectivity panel CSNK1G1; assay type: biochemical; conditions: 5 µM inhibitor
T24 construct: purchased Life Technologies (Invitrogen SelectScreen); Dyrk1A, Dyrk2 and CK2α in-house or gifts

ZAK = target: T25, ZAK (Homo sapiens, UniProt Q9NYL2); assay: Selectivity panel ZAK; assay type: biochemical; conditions: 5 µM inhibitor
T25 construct: purchased Life Technologies (Invitrogen SelectScreen); Dyrk1A, Dyrk2 and CK2α in-house or gifts

RAF1 (cRAF) Y340D Y341D = target: T26, RAF1 (cRAF) Y340D Y341D (Homo sapiens, UniProt P04049, Y340D/Y341D); assay: Selectivity panel RAF1; assay type: biochemical; conditions: 5 µM inhibitor
T26 construct: purchased Life Technologies (Invitrogen SelectScreen); Dyrk1A, Dyrk2 and CK2α in-house or gifts

ACVR1 (ALK2) = target: T27, ACVR1 (ALK2) (Homo sapiens, UniProt Q04771); assay: Selectivity panel ACVR1; assay type: biochemical; conditions: 5 µM inhibitor
T27 construct: purchased Life Technologies (Invitrogen SelectScreen); Dyrk1A, Dyrk2 and CK2α in-house or gifts
T27 sequence (Q04771 21-509): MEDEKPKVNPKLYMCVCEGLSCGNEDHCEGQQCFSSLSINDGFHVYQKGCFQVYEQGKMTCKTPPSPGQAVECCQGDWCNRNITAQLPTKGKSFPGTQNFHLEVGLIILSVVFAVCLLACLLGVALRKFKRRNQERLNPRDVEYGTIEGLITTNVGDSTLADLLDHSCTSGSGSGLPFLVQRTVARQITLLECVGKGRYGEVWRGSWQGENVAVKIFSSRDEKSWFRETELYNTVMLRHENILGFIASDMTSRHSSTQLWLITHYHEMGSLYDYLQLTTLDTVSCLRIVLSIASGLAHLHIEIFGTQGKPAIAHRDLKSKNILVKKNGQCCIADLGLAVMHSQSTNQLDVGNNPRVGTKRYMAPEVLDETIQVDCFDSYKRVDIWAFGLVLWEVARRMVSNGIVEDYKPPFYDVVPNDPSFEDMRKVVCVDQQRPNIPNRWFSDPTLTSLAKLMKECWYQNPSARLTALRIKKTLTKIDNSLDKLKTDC

IRAK4 = target: T28, IRAK4 (Homo sapiens, UniProt Q9NWZ3); assay: Selectivity panel IRAK4; assay type: biochemical; conditions: 5 µM inhibitor
T28 construct: purchased Life Technologies (Invitrogen SelectScreen); Dyrk1A, Dyrk2 and CK2α in-house or gifts

TNK2 (ACK) = target: T29, TNK2 (ACK) (Homo sapiens, UniProt Q07912); assay: Selectivity panel TNK2; assay type: biochemical; conditions: 5 µM inhibitor
T29 construct: purchased Life Technologies (Invitrogen SelectScreen); Dyrk1A, Dyrk2 and CK2α in-house or gifts
T29 sequence (Q07912 whole entry): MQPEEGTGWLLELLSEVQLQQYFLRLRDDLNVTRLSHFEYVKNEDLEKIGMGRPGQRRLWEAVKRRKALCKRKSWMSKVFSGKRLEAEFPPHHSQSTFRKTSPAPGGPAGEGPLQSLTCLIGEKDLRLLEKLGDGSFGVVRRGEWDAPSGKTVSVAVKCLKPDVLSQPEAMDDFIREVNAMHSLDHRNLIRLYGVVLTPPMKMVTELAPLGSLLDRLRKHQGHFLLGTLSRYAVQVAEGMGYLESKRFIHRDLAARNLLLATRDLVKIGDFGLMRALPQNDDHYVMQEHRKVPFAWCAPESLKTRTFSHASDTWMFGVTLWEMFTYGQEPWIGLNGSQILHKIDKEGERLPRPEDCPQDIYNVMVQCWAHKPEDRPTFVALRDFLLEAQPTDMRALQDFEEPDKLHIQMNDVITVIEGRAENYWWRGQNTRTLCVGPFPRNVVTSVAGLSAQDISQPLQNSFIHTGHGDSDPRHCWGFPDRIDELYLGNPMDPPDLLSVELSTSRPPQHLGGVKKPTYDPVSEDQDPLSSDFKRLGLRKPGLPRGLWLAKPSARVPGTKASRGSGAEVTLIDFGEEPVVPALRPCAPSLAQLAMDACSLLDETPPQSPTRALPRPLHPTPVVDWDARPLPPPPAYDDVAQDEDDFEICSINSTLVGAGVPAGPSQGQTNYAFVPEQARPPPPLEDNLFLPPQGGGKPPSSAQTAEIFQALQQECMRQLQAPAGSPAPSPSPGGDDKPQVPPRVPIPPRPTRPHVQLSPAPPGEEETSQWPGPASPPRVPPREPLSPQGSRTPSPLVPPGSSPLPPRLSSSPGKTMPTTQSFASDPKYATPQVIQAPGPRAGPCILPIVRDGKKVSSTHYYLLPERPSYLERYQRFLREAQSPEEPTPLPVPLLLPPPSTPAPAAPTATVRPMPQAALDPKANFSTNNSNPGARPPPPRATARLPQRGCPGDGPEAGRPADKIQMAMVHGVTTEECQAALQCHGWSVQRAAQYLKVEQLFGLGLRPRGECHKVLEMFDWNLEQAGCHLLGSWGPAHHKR

EPHA5 = target: T30, EPHA5 (Homo sapiens, UniProt P54756); assay: Selectivity panel EPHA5; assay type: biochemical; conditions: 5 µM inhibitor
T30 construct: purchased Life Technologies (Invitrogen SelectScreen); Dyrk1A, Dyrk2 and CK2α in-house or gifts

FGFR3 = target: T31, FGFR3 (Homo sapiens, UniProt P22607); assay: Selectivity panel FGFR3; assay type: biochemical; conditions: 5 µM inhibitor
T31 construct: purchased Life Technologies (Invitrogen SelectScreen); Dyrk1A, Dyrk2 and CK2α in-house or gifts

IGF1R = target: T32, IGF1R (Homo sapiens, UniProt P08069); assay: Selectivity panel IGF1R; assay type: biochemical; conditions: 5 µM inhibitor
T32 construct: purchased Life Technologies (Invitrogen SelectScreen); Dyrk1A, Dyrk2 and CK2α in-house or gifts

MET (cMet) = target: T33, MET (cMet) (Homo sapiens, UniProt P08581); assay: Selectivity panel MET; assay type: biochemical; conditions: 5 µM inhibitor
T33 construct: purchased Life Technologies (Invitrogen SelectScreen); Dyrk1A, Dyrk2 and CK2α in-house or gifts
T33 sequence (P08581 25-1390): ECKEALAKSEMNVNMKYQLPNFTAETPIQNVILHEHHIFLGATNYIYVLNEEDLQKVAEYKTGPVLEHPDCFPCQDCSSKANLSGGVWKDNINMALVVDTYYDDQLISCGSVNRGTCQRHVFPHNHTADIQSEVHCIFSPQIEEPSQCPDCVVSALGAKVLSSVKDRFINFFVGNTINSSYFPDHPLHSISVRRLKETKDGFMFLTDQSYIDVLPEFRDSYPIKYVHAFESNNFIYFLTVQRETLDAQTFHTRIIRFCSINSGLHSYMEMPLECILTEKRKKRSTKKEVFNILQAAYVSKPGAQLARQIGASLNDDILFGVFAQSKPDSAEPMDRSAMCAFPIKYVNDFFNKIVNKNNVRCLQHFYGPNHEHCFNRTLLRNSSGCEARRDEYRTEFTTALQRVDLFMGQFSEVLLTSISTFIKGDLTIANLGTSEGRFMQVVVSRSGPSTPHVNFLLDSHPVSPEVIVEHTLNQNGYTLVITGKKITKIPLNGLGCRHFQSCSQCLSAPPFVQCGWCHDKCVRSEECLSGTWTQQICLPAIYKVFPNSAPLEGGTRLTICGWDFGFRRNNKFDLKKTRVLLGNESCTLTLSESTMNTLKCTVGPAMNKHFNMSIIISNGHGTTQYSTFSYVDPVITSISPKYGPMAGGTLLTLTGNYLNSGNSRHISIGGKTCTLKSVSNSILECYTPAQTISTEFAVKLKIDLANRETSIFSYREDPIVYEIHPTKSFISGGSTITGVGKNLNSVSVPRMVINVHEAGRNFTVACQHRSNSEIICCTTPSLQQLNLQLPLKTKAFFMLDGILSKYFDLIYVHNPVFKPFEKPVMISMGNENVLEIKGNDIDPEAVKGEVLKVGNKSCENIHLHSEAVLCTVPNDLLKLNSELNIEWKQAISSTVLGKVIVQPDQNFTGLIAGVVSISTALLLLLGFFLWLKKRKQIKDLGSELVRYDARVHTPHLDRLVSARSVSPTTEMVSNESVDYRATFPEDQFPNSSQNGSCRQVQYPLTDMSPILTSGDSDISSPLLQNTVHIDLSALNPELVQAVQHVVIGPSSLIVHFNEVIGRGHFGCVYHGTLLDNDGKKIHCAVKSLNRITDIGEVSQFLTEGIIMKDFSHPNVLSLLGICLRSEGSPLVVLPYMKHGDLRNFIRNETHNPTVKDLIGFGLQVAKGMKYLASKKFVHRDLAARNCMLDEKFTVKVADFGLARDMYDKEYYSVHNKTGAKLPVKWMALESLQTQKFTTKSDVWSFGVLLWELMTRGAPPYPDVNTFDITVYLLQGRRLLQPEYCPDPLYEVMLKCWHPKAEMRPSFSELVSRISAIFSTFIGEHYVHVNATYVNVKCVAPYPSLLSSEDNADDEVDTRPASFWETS

ZAP70 = target: T34, ZAP70 (Homo sapiens, UniProt P43403); assay: Selectivity panel ZAP70; assay type: biochemical; conditions: 5 µM inhibitor
T34 construct: purchased Life Technologies (Invitrogen SelectScreen); Dyrk1A, Dyrk2 and CK2α in-house or gifts

TEK (Tie2) = target: T35, TEK (Tie2) (Homo sapiens, UniProt Q02763); assay: Selectivity panel TEK; assay type: biochemical; conditions: 5 µM inhibitor
T35 construct: purchased Life Technologies (Invitrogen SelectScreen); Dyrk1A, Dyrk2 and CK2α in-house or gifts

SRC = target: T36, SRC (Homo sapiens, UniProt P12931); assay: Selectivity panel SRC; assay type: biochemical; conditions: 5 µM inhibitor
T36 construct: purchased Life Technologies (Invitrogen SelectScreen); Dyrk1A, Dyrk2 and CK2α in-house or gifts

PTK6 (Brk) = target: T37, PTK6 (Brk) (Homo sapiens, UniProt Q13882); assay: Selectivity panel PTK6; assay type: biochemical; conditions: 5 µM inhibitor
T37 construct: purchased Life Technologies (Invitrogen SelectScreen); Dyrk1A, Dyrk2 and CK2α in-house or gifts

For `c1cncc(-c2cc(-c3cncs3)cs2)c1` [Compound 29, 3-[4-(1,3-thiazol-5-yl)thiophen-2-yl]pyridine], the “concentration at which induction of caspase-3/7 was already observed” value (U2OS osteosarcoma cells; U2OS cells, not statistically significant at this concentration) was 0.5 µM, the caspase-3/7 activity (U2OS osteosarcoma cells; starved U2OS cells, 48 hours, vs DMSO control) was “clear increase” and the inhibition at 5 µM (DYRK3) was 66%. For the same compound, the inhibition at 5 µM (CLK2) was 72%, the inhibition at 5 µM (MAPK12 (p38 gamma, ERK3)) was -2% and the inhibition at 5 µM (MAPK8 (JNK1)) was -1%. For the same compound, the inhibition at 5 µM (MAPK9 (JNK2)) was -6%, the inhibition at 5 µM (SRPK1) was 3% and the inhibition at 5 µM (MAP2K1 (MEK1)) was 1%. The inhibition at 5 µM (MAP2K6 (MKK6)) was 5%, the inhibition at 5 µM (TAOK2 (TAO1)) was -6% and the inhibition at 5 µM [1] was 23%. It also gave an inhibition at 5 µM (ROCK2) of 6%, an inhibition at 5 µM (RPS6KB1 (p70S6K)) of -2% and an inhibition at 5 µM (SGK (SGK1)) of 20%. For the same compound, the inhibition at 5 µM (PRKCE (PKC epsilon)) was -18%, the inhibition at 5 µM (PRKCZ (PKC zeta)) was -23% and the inhibition at 5 µM (PDK1) was -10%. For the same compound, the inhibition at 5 µM (MAPKAPK2) was 2%, the inhibition at 5 µM (MARK1 (MARK)) was 0% and the inhibition at 5 µM (CHEK1 (CHK1)) was 3%. The inhibition at 5 µM (CHEK2 (CHK2)) was 1%, the inhibition at 5 µM (MYLK2 (skMLCK)) was 12% and the inhibition at 5 µM (PASK) was 23%. For the same compound, the inhibition at 5 µM (IKBKB (IKK beta)) was 8%, the inhibition at 5 µM (CSNK1G1 (CK1 gamma 1)) was -5% and the inhibition at 5 µM (ZAK) was 11%. It also gave an inhibition at 5 µM (RAF1 (cRAF) Y340D Y341D) of 36%, an inhibition at 5 µM (ACVR1 (ALK2)) of 51% and an inhibition at 5 µM (IRAK4) of -7%. For the same compound, the inhibition at 5 µM (TNK2 (ACK)) was 8%, the inhibition at 5 µM (EPHA5) was -9% and the inhibition at 5 µM (FGFR3) was -2%. The inhibition at 5 µM (IGF1R) was 1%, the inhibition at 5 µM (MET (cMet)) was 1% and the inhibition at 5 µM (ZAP70) was 4%. It also gave an inhibition at 5 µM (TEK (Tie2)) of -1%, an inhibition at 5 µM (SRC) of -8% and an inhibition at 5 µM (PTK6 (Brk)) of 30%.
